# Measured values published in US20250042905A1, “DIHYDROPYRROLO[3,4-C]PYRAZOLE DERIVATIVES AND THEIR USE IN DIAGNOSIS” (AC IMMUNE SA, priority 2021, published 2025).
# Read-outs that look alike come from different tables or passages of the source.
# Target: T1, PD brain-derived alpha-synuclein aggregates (Homo sapiens, UniProt P37840)
# T1 construct: PD brain-derived alpha-synuclein aggregates were spotted onto microarray slides; from tissue; host or cells: human Parkinson's disease patient brain
# Assay: Micro-radiobinding competition assay for the determination of binding affinity
# Details: for inhibition at 0.1 µM: read-out: Competition at 100 nM (%); for inhibition at 1 µM: read-out: Competition at 1 μM (%); for Ki: concentration range 0.05 nM to 2 μM, nonlinear regression, one site specific binding model
# Description: Micro-Radiobinding Competition Assay for the Determination of Binding Affinity
# PD brain-derived alpha-synuclein aggregates were spotted onto microarray slides. The slides were incubated with tritiated reference alpha-synuclein ligand at 20 nM or 30 nM and the example compounds (non-radiolabelled) at 1 μM and 100 nM. In some cases, the non-radiolabelled example compounds were further assessed for a range of different concentrations, varying from 0.05 nM to 2 μM. After incubation, slides were washed and scanned by a real-time autoradiography system (BeaQuant, ai4R). Quantification of the signal was performed by using the Beamage image analysis software (ai4R). Non-specific signal was determined with an excess of non-radiolabelled reference alpha-synuclein ligand (2 μM) and specific binding was calculated by subtracting the non-specific signal from the total signal. Competition was calculated as percent, where 0% was defined as the specific binding in the presence of vehicle and 100% as the values obtained in the presence of excess of the non-radiolabelled reference alpha-synuclein ligand. Ki values were calculated in GraphPad Prism7 by applying a nonlinear regression curve fit using a one site, specific binding model. All measurements were performed with at least two technical replicates.
# Table 4: Assessment of binding affinity by micro-radiobinding competition assay on human PD brain-derived alpha-synuclein aggregates.
# [1] = non-radiolabelled example compound at 100 nM, competition with tritiated reference alpha-synuclein ligand (20 nM or 30 nM), 100% = excess non-radiolabelled reference ligand
# [2] = non-radiolabelled example compound at 1 μM, competition with tritiated reference alpha-synuclein ligand (20 nM or 30 nM), 100% = excess non-radiolabelled reference ligand
Structure (SMILES),inhibition at 0.1 µM [1] [%],inhibition at 1 µM [2] [%],also measured
"O=C1c2cn(-c3cnc(N4CC[C@H](F)C4)cn3)nc2CN1c1cccnc1 [Example 2, (S)-2-(5-(3-fluoropyrrolidin-1-yl)pyrazin-2-yl)-5-(pyridin-3-yl)-5,6-dihydropyrrolo[3,4-c]pyrazol-4(2H)-one]",–,–,inhibition at 0.1 µM: 74%; inhibition at 1 µM: 98%
"Cn1cc(N2Cc3nn(-c4cnc(N5CCCCC(F)C5)cn4)cc3C2=O)cn1 (centres unmarked) [Example 8, 2-(5-(3-fluoroazepan-1-yl)pyrazin-2-yl)-5-(1-methyl-1H-pyrazol-4-yl)-5,6-dihydropyrrolo[3,4-c]pyrazol-4(2H)-one]",45,78,Ki: 33 nM
"O=C1c2cn(-c3ccc(N4CC[C@@H](F)C4)nn3)nc2CN1c1cccnc1 [Example 20, (R)-2-(6-(3-fluoropyrrolidin-1-yl)pyridazin-3-yl)-5-(pyridin-3-yl)-5,6-dihydropyrrolo[3,4-c]pyrazol-4(2H)-one]",38,74,Ki: 422 nM
"Cc1ccc(N2Cc3nn(-c4cnc(N5CC(F)C5)cn4)cc3C2=O)cn1 [Example 19, 2-(5-(3-fluoroazetidin-1-yl)pyrazin-2-yl)-5-(6-methylpyridin-3-yl)-5,6-dihydropyrrolo[3,4-c]pyrazol-4(2H)-one]",44,74,–
"O=C1c2cn(-c3cnc(N4CC[C@H](F)C4)nc3)nc2CN1c1cccnc1 [Example 36, 2-2-[(3S)-3-fluoropyrrolidin-1-yl]pyrimidin-5-yl-5-(pyridin-3-yl)-2H,4H,5H,6H-pyrrolo[3,4-c]pyrazol-4-one]",–,–,Competition at 100 nM (%) [1]: 37%; Competition at 1 μM (%) [2]: 64%
"COc1cncc(N2Cc3nn(-c4cnc(N5CC[C@H](F)C5)cn4)cc3C2=O)c1 [Example 10, (S)-2-(5-(3-fluoropyrrolidin-1-yl)pyrazin-2-yl)-5-(5-methoxypyridin-3-yl)-5,6-dihydropyrrolo[3,4-c]pyrazol-4(2H)-one]",–,–,inhibition at 0.1 µM: 59%; inhibition at 1 µM: 82%
"COc1cncc(N2Cc3nn(-c4cnc(N5CC(F)C5)cn4)cc3C2=O)c1 [Example 11, 2-(5-(3-fluoroazetidin-1-yl)pyrazin-2-yl)-5-(5-methoxypyridin-3-yl)-5,6-dihydropyrrolo[3,4-c]pyrazol-4(2H)-one]",–,–,inhibition at 0.1 µM: 41%; inhibition at 1 µM: 69%
"Cc1ccc(N2Cc3nn(-c4cnc(N5CC[C@@H](F)C5)cn4)cc3C2=O)cn1 [Example 17, (R)-2-(5-(3-fluoropyrrolidin-1-yl)pyrazin-2-yl)-5-(6-methylpyridin-3-yl)-5,6-dihydropyrrolo[3,4-c]pyrazol-4(2H)-one]",46,91,–
"O=C1c2cn(-c3cnc(N4CC[C@@H](F)C4)cn3)nc2CN1c1cccnc1 [Example 1, (R)-2-(5-(3-fluoropyrrolidin-1-yl)pyrazin-2-yl)-5-(pyridin-3-yl)-5,6-dihydropyrrolo[3,4-c]pyrazol-4(2H)-one]",89,95,–
"Cc1ccc(N2Cc3nn(-c4cnc(N5CC[C@H](F)C5)cn4)cc3C2=O)cn1 [Example 18, (S)-2-(5-(3-fluoropyrrolidin-1-yl)pyrazin-2-yl)-5-(6-methylpyridin-3-yl)-5,6-dihydropyrrolo[3,4-c]pyrazol-4(2H)-one]",38,82,–
"O=C1c2cn(-c3cnc(N4CCCCC(F)C4)cn3)nc2CN1c1cccnc1 (centres unmarked) [Example 5, 2-(5-(3-fluoroazepan-1-yl)pyrazin-2-yl)-5-(pyridin-3-yl)-5,6-dihydropyrrolo[3,4-c]pyrazol-4(2H)-one]",39,68,–
"COc1cncc(N2Cc3nn(-c4cnc(N5CC[C@@H](F)C5)cn4)cc3C2=O)c1 [Example 7, (R)-2-(5-(3-fluoropyrrolidin-1-yl)pyrazin-2-yl)-5-(5-methoxypyridin-3-yl)-5,6-dihydropyrrolo[3,4-c]pyrazol-4(2H)-one]",–,–,inhibition at 0.1 µM: 48%; inhibition at 1 µM: 69%
"O=C1c2cn(-c3cnc(N4CC[C@@H](F)C4)cn3)nc2CN1c1cncs1 [Example 9, (R)-2-(5-(3-fluoropyrrolidin-1-yl)pyrazin-2-yl)-5-(thiazol-5-yl)-5,6-dihydropyrrolo[3,4-c]pyrazol-4(2H)-one]",–,–,Ki: 10 nM; inhibition at 0.1 µM: 106%

# More lines, main results first:
inhibition at 0.1 µM [1] [%],inhibition at 1 µM [2] [%],Structure (SMILES),also measured
29,34,"O=C1c2cn(-c3ccc(C(F)(F)F)nn3)nc2CN1c1cccnc1 [Example 35, 5-(pyridin-3-yl)-2-(6-(trifluoromethyl)pyridazin-3-yl)-5,6-dihydropyrrolo[3,4-c]pyrazol-4(2H)-one]",–
30,77,"O=C1c2cn(-c3ccc(N4CC[C@H](F)C4)nn3)nc2CN1c1cccnc1 [Example 24, (S)-2-(6-(3-fluoropyrrolidin-1-yl)pyridazin-3-yl)-5-(pyridin-3-yl)-5,6-dihydropyrrolo[3,4-c]pyrazol-4(2H)-one]",Ki: 236 nM
4,39,"Cc1ccc(N2Cc3nn(-c4ccc(N5CC[C@H](F)C5)nn4)cc3C2=O)cn1 [Example 30, (S)-2-(6-(3-fluoropyrrolidin-1-yl)pyridazin-3-yl)-5-(6-methylpyridin-3-yl)-5,6-dihydropyrrolo[3,4-c]pyrazol-4(2H)-one]",–
17,51,"O=C1c2cn(-c3ccc(N4CCCC(F)CC4)nn3)nc2CN1c1cccnc1 (centres unmarked) [Example 28, 2-(6-(4-fluoroazepan-1-yl)pyridazin-3-yl)-5-(pyridin-3-yl)-5,6-dihydropyrrolo[3,4-c]pyrazol-4(2H)-one]",–
6,35,"O=C1c2cn(-c3ccc(N4CCCCC(F)C4)nn3)nc2CN1c1cccnc1 (centres unmarked) [Example 33, 2-(6-(3-fluoroazepan-1-yl)pyridazin-3-yl)-5-(pyridin-3-yl)-5,6-dihydropyrrolo[3,4-c]pyrazol-4(2H)-one]",–
50,57,"COc1cncc(N2Cc3nn(-c4ccc(N5CC[C@H](F)C5)nn4)cc3C2=O)c1 [Example 27, (S)-2-(6-(3-fluoropyrrolidin-1-yl)pyridazin-3-yl)-5-(5-methoxypyridin-3-yl)-5,6-dihydropyrrolo[3,4-c]pyrazol-4(2H)-one]",–
71,86,"O=C1c2cn(-c3ccc(N4CC[C@@H](F)C4)nn3)nc2CN1c1ccns1 [Example 31, (R)-2-(6-(3-fluoropyrrolidin-1-yl)pyridazin-3-yl)-5-(isothiazol-5-yl)-5,6-dihydropyrrolo[3,4-c]pyrazol-4(2H)-one]",–
17,73,"O=C1c2cn(-c3ccc(N4CC[C@H](F)C4)nn3)nc2CN1c1cncs1 [Example 25, (S)-2-(6-(3-fluoropyrrolidin-1-yl)pyridazin-3-yl)-5-(thiazol-5-yl)-5,6-dihydropyrrolo[3,4-c]pyrazol-4(2H)-one]",Ki: 222 nM
65,86,"Cn1cc(N2Cc3nn(-c4ccc(N5CC[C@@H](F)C5)nn4)cc3C2=O)cn1 [Example 21, (R)-2-(6-(3-fluoropyrrolidin-1-yl)pyridazin-3-yl)-5-(1-methyl-1H-pyrazol-4-yl)-5,6-dihydropyrrolo[3,4-c]pyrazol-4(2H)-one]",–
30,–,"O=C1c2cn(-c3ccc(N4CC[C@@H](F)C4)nn3)nc2CN1c1cncs1 [Example 22, (R)-2-(6-(3-fluoropyrrolidin-1-yl)pyridazin-3-yl)-5-(thiazol-5-yl)-5,6-dihydropyrrolo[3,4-c]pyrazol-4(2H)-one]",–
15,42,"Cc1ccc(N2Cc3nn(-c4ccc(N5CC[C@@H](F)C5)nn4)cc3C2=O)cn1 [Example 29, (R)-2-(6-(3-fluoropyrrolidin-1-yl)pyridazin-3-yl)-5-(6-methylpyridin-3-yl)-5,6-dihydropyrrolo[3,4-c]pyrazol-4(2H)-one]",–
65,76,"COc1cncc(N2Cc3nn(-c4ccc(N5CC[C@@H](F)C5)nn4)cc3C2=O)c1 [Example 23, (R)-2-(6-(3-fluoropyrrolidin-1-yl)pyridazin-3-yl)-5-(5-methoxypyridin-3-yl)-5,6-dihydropyrrolo[3,4-c]pyrazol-4(2H)-one]",Ki: 182 nM
61,77,"O=C1c2cn(-c3ccc(N4CC[C@H](F)C4)nn3)nc2CN1c1ccns1 [Example 32, (S)-2-(6-(3-fluoropyrrolidin-1-yl)pyridazin-3-yl)-5-(isothiazol-5-yl)-5,6-dihydropyrrolo[3,4-c]pyrazol-4(2H)-one]",–
